Tests used:
Assay type in all cases: cell-based
Settings in all cases: for combined effect with AMLs: in combination with AMLs
M. furfur (CBS1878) = test: ΣFIC assay against M. furfur
Method: (§1) Method: ΣFIC Assay Against M. Furfur, S. Aureus and P Acnes
(§2) M. furfur (CBS1878) was inoculated into Pityrosporum Broth (PB, solution A) and incubated in a shaking incubator at 32° C. for 2 days. The suspension containing the microbe was then diluted 10-times by PB and incubated again at 32° C. for another 2 days. The inoculum was further diluted by PB to get around 10^4 cells /ml. S. aureus (ATCC 12600) was inoculated into Tryptone Soya Broth (TSB, Oxoid: CM0129) and incubated in a shaking incubator at 37° C. for 1 day. The suspension containing the microbe was then diluted 10-times with TSB and incubated again at 37° C. for another 1 day. The inoculum was further diluted by TSB to get around 10^5 cells/ml.
(§3) Honokiol (Ex. Sigma) 50 mg/ml in DMSO (50,000 ppm); Magnolol (Ex. Sigma) 50 mg/ml in DMSO (50,000 ppm); Sapienic acid (Ex. Parchem, CAS# 17004-51-2) 100 mg/ml in 100% ethanol (100,000 ppm); D-Sphingosine (Ex. Sigma S7049) 5 mg/ml in 50% ethanol (5,000 ppm); D-erythro-Dihydrosphingosine (Ex. Sigma D3314) 5 mg/ml in 50% ethanol (5,000 ppm); Phytosphingosine (Ex. Evonik) 5 mg/m stock in 50% ethanol (5,000 ppm); Palmitoleic acid (Ex. Sigma 76169) 100 mg/ml in 100% ethanol (100,000 ppm).
(§4) The ΣFIC test was conducted based on the principle previously described in Hall M J, Middleton R F, & Westmacott D (1983), The fractional inhibitory concentration (FIC) index as a measure of synergy. Journal of Antimicrobial Chemotherapy 11(5):427-433. The procedure is as follows:
(§5) Twenty (20) μl of compound A (honokiol or magnolol as applicable to the test) and 20 μl of compound B (a selection of different AMLs as applicable to the test) were mixed in corresponding wells of a 96-well plate. An amount of 160 μl of microbial suspension was dispensed in each well and the broth medium as taken as a blank control for comparison of results. The total reaction volume in each well was 200 μl.
(§6) Thereafter the 96-well plates were incubated in an incubator. In accordance with the test protocols that were followed, M. furfur was incubated aerobically at 32° C. for 1 day, S. aureus was incubated aerobically at 37° C. for 1 day and P. acnes was incubated anaerobically at 37° C. for 4 days. Thereafter 20 μl alamar blue (0.1%) was dispensed in each well and the procedure of incubation (as abovementioned) was repeated. Finally, the change in colour of the indicator was monitored to check for visible signs of microbial growth or inhibition of the growth. If the colour changed to red it indicated growth (of microbes) and blue indicated no growth or inhibition of growth.
(§7) After all the observations were recorded and tabulated, the Fractional Inhibition Concentration (FIC) was calculated. The combination effect of inhibitory antimicrobials is widely explored using the concept of the Fractional Concentration (FC) and Fractional Inhibitory Concentration (FIC). This parameter is defined as follows:
(§8) ΣFIC=FIC (component 1)+FIC (component 2)
(§9) The final concentration of each ingredient in ppm (parts per million) after (10-fold dilution) was as follows. Each of these concentrations was tried out to determine the FIC value for (either of) honokiol or magnolol in combination with one of the AMLs.

S. aureus (ATCC 12600) = test: ΣFIC assay against S. aureus
Method: as §1, §2, §3, §4, §5, §6, §7, §8, §9

[1] = system: Propionibacterium acnes (ATCC 6919); test: ΣFIC assay against P. acnes
Method: as §1
Propionibacterium acnes (ATCC 6919) was inoculated from freezer into liquid Reinforced Clostridial Medium (RCM, HepoBio: HB0316) for 3 days (anaerobic conditions) growth at 37° C. The suspension containing the microbe was then diluted 10-times with RCM and incubated again under 37° C. for another 3 days. The inoculum was further diluted by RCM to get around 10^4 cells/ml.
as §3, §4, §5, §6, §7, §8, §9

SMILES: CCCCCCCCCCCCCCC[C@@H](O)[C@@H](N)CO [dihydrosphingosine, D-erythro-Dihydrosphingosine]
- The range of concentration of the ingredient (ppm) where the ΣFIC was less than 0.9: AML (M. furfur (CBS1878); in combination with honokiol): 31.25 to 125 ppm
- The range of concentration of the ingredient (ppm) where the ΣFIC was less than 0.9: AML (M. furfur (CBS1878); in combination with magnolol): 15.63 to 125 ppm
- The range of ratio of honokiol/AML (w/w) where ΣFIC was less than 0.9 (M. furfur (CBS1878)): 5 to 40 w/w
- The range of ratio of magnolol/AML (w/w) where ΣFIC was less than 0.9 (M. furfur (CBS1878)): 5 to 80 w/w
- The range of concentration of the ingredient (ppm) where the ΣFIC was less than 0.9: AML (S. aureus (ATCC 12600); in combination with honokiol): 0.63 to 2.50 ppm
- The range of concentration of the ingredient (ppm) where the ΣFIC was less than 0.9: AML (S. aureus (ATCC 12600); in combination with magnolol): 0.63 to 1.25 ppm
- The range of ratio of honokiol/AML (w/w) where ΣFIC was less than 0.9 (S. aureus (ATCC 12600)): 0.8 to 12.5 w/w
- The range of ratio of magnolol/AML (w/w) where ΣFIC was less than 0.9 (S. aureus (ATCC 12600)): 0.4 to 12.5 w/w
- The range of concentration of the ingredient (ppm) where the ΣFIC was less than 0.9: AML ([1]; in combination with honokiol): 0.63 to 2.50 ppm
- The range of concentration of the ingredient (ppm) where the ΣFIC was less than 0.9: AML ([1]; in combination with magnolol): 0.63 to 2.50 ppm
- The range of ratio of honokiol/AML (w/w) where ΣFIC was less than 0.9 [1]: 0.2 to 6.5 w/w
- The range of ratio of magnolol/AML (w/w) where ΣFIC was less than 0.9 [1]: 0.7 to 6.5 w/w

SMILES: C=CCc1ccc(O)c(-c2ccc(O)c(CC=C)c2)c1 [honokiol, Honokiol]
- combined effect with AMLs (M. furfur (CBS1878)): synergistic effect
- combined effect with AMLs (S. aureus (ATCC 12600)): synergistic effect
- combined effect with AMLs [1]: synergistic effect

SMILES: C=CCc1ccc(O)c(-c2cc(CC=C)ccc2O)c1 [magnolol, Magnolol]
- combined effect with AMLs (M. furfur (CBS1878)): synergistic effect
- combined effect with AMLs (S. aureus (ATCC 12600)): synergistic effect
- combined effect with AMLs [1]: synergistic effect

SMILES: CCCCCC/C=C\CCCCCCCC(=O)O [palmitoleic acid, Palmitoleic acid]
- The range of concentration of the ingredient (ppm) where the ΣFIC was less than 0.9: AML (M. furfur (CBS1878); in combination with honokiol): 625 to 5000 ppm
- The range of concentration of the ingredient (ppm) where the ΣFIC was less than 0.9: AML (M. furfur (CBS1878); in combination with magnolol): 625 to 5000 ppm
- The range of ratio of honokiol/AML (w/w) where ΣFIC was less than 0.9 (M. furfur (CBS1878)): 0.06 to 2 w/w
- The range of ratio of magnolol/AML (w/w) where ΣFIC was less than 0.9 (M. furfur (CBS1878)): 0.03 to 2 w/w
- The range of concentration of the ingredient (ppm) where the ΣFIC was less than 0.9: AML (S. aureus (ATCC 12600); in combination with honokiol): 3.91 to 62.5 ppm
- The range of concentration of the ingredient (ppm) where the ΣFIC was less than 0.9: AML (S. aureus (ATCC 12600); in combination with magnolol): 3.91 to 52.5 ppm
- The range of ratio of honokiol/AML (w/w) where ΣFIC was less than 0.9 (S. aureus (ATCC 12600)): 0.008 to 2 w/w
- The range of ratio of magnolol/AML (w/w) where ΣFIC was less than 0.9 (S. aureus (ATCC 12600)): 0.008 to 2 w/w
- The range of concentration of the ingredient (ppm) where the ΣFIC was less than 0.9: AML ([1]; in combination with honokiol): 1.95 to 7.81 ppm
- The range of concentration of the ingredient (ppm) where the ΣFIC was less than 0.9: AML ([1]; in combination with magnolol): 1.95 to 7.81 ppm
- The range of ratio of honokiol/AML (w/w) where ΣFIC was less than 0.9 [1]: 0.06 to 1 w/w
- The range of ratio of magnolol/AML (w/w) where ΣFIC was less than 0.9 [1]: 0.1 to 4 w/w

SMILES: CCCCCCCCCCCCCC[C@@H](O)[C@@H](O)[C@@H](N)CO [phytosphingosine, Phytosphingosine]
- The range of concentration of the ingredient (ppm) where the ΣFIC was less than 0.9: AML (M. furfur (CBS1878); in combination with honokiol): 15.63 to 62.5 ppm
- The range of concentration of the ingredient (ppm) where the ΣFIC was less than 0.9: AML (M. furfur (CBS1878); in combination with magnolol): 3.91 to 62.5 ppm
- The range of ratio of honokiol/AML (w/w) where ΣFIC was less than 0.9 (M. furfur (CBS1878)): 10 to 80 w/w
- The range of ratio of magnolol/AML (w/w) where ΣFIC was less than 0.9 (M. furfur (CBS1878)): 10 to 320 w/w
- The range of concentration of the ingredient (ppm) where the ΣFIC was less than 0.9: AML (S. aureus (ATCC 12600); in combination with honokiol): 0.63 to 5.00 ppm
- The range of concentration of the ingredient (ppm) where the ΣFIC was less than 0.9: AML (S. aureus (ATCC 12600); in combination with magnolol): 0.63 to 2.50 ppm
- The range of ratio of honokiol/AML (w/w) where ΣFIC was less than 0.9 (S. aureus (ATCC 12600)): 0.4 to 12.5 w/w
- The range of ratio of magnolol/AML (w/w) where ΣFIC was less than 0.9 (S. aureus (ATCC 12600)): 0.2 to 12.5 w/w
- The range of concentration of the ingredient (ppm) where the ΣFIC was less than 0.9: AML ([1]; in combination with honokiol): 1.25 to 5.00 ppm
- The range of concentration of the ingredient (ppm) where the ΣFIC was less than 0.9: AML ([1]; in combination with magnolol): 0.63 to 5.00 ppm
- The range of ratio of honokiol/AML (w/w) where ΣFIC was less than 0.9 [1]: 0.2 to 3.2 w/w
- The range of ratio of magnolol/AML (w/w) where ΣFIC was less than 0.9 [1]: 0.4 to 12.5 w/w

SMILES: CCCCCCCCC/C=C\CCCCC(=O)O [sapienic acid, Sapienic acid]
- The range of concentration of the ingredient (ppm) where the ΣFIC was less than 0.9: AML (M. furfur (CBS1878); in combination with honokiol): 625 to 2500 ppm
- The range of concentration of the ingredient (ppm) where the ΣFIC was less than 0.9: AML (M. furfur (CBS1878); in combination with magnolol): 625 to 5000 ppm
- The range of ratio of honokiol/AML (w/w) where ΣFIC was less than 0.9 (M. furfur (CBS1878)): 0.25 to 1 w/w
- The range of ratio of magnolol/AML (w/w) where ΣFIC was less than 0.9 (M. furfur (CBS1878)): 0.06 to 2 w/w
- The range of concentration of the ingredient (ppm) where the ΣFIC was less than 0.9: AML (S. aureus (ATCC 12600); in combination with honokiol): 3.91 to 62.5 ppm
- The range of concentration of the ingredient (ppm) where the ΣFIC was less than 0.9: AML (S. aureus (ATCC 12600); in combination with magnolol): 1.95 to 31.25 ppm
- The range of ratio of honokiol/AML (w/w) where ΣFIC was less than 0.9 (S. aureus (ATCC 12600)): 0.008 to 2 w/w
- The range of ratio of magnolol/AML (w/w) where ΣFIC was less than 0.9 (S. aureus (ATCC 12600)): 0.01 to 4 w/w
- The range of concentration of the ingredient (ppm) where the ΣFIC was less than 0.9: AML ([1]; in combination with honokiol): 1.95 to 3.91 ppm
- The range of concentration of the ingredient (ppm) where the ΣFIC was less than 0.9: AML ([1]; in combination with magnolol): 1.95 to 3.91 ppm
- The range of ratio of honokiol/AML (w/w) where ΣFIC was less than 0.9 [1]: 0.25 to 1 w/w
- The range of ratio of magnolol/AML (w/w) where ΣFIC was less than 0.9 [1]: 0.25 to 1 w/w

SMILES: CCCCCCCCCCCCC/C=C/[C@@H](O)[C@@H](N)CO [sphingosine, D-Sphingosine]
- The range of concentration of the ingredient (ppm) where the ΣFIC was less than 0.9: AML (M. furfur (CBS1878); in combination with honokiol): 31.25 to 250 ppm
- The range of concentration of the ingredient (ppm) where the ΣFIC was less than 0.9: AML (M. furfur (CBS1878); in combination with magnolol): 31.25 to 125 ppm
- The range of ratio of honokiol/AML (w/w) where ΣFIC was less than 0.9 (M. furfur (CBS1878)): 1.25 to 40 w/w
- The range of ratio of magnolol/AML (w/w) where ΣFIC was less than 0.9 (M. furfur (CBS1878)): 5 to 40 w/w
- The range of concentration of the ingredient (ppm) where the ΣFIC was less than 0.9: AML (S. aureus (ATCC 12600); in combination with honokiol): 0.31 to 1.25 ppm
- The range of concentration of the ingredient (ppm) where the ΣFIC was less than 0.9: AML (S. aureus (ATCC 12600); in combination with magnolol): 0.31 to 0.63 ppm
- The range of ratio of honokiol/AML (w/w) where ΣFIC was less than 0.9 (S. aureus (ATCC 12600)): 0.8 to 25 w/w
- The range of ratio of magnolol/AML (w/w) where ΣFIC was less than 0.9 (S. aureus (ATCC 12600)): 1.5 to 25 w/w
- The range of concentration of the ingredient (ppm) where the ΣFIC was less than 0.9: AML ([1]; in combination with honokiol): 0.31 to 1.25 ppm
- The range of concentration of the ingredient (ppm) where the ΣFIC was less than 0.9: AML ([1]; in combination with magnolol): 0.31 to 1.25 ppm
- The range of ratio of honokiol/AML (w/w) where ΣFIC was less than 0.9 [1]: 0.7 to 13 w/w
- The range of ratio of magnolol/AML (w/w) where ΣFIC was less than 0.9 [1]: 1.5 to 13 w/w

— US20200360260A1, “TOPICAL COMPOSITION COMPRISING ANTIMICROBIAL LIPID” (Conopco, Inc., d/b/a UNILEVER, priority 2017, published 2020)
